Columns and labels:
Assay type in all cases: biochemical
[1] = biological target: Human recombinant cathepsin V (Homo sapiens (Human), UniProt O60911); assay: In vitro cathepsin Ki inhibition measurements, cathepsin V; conditions: read-out: In vitro Ki (nM) vs Cath V
Protocol: (§1) Stock solutions of substrate or inhibitor were made up to 10 mM in 100% dimethylsulfoxide (DMSO) (Rathburns, Glasgow, U.K.) and diluted as appropriately required. In all cases the DMSO concentration in the assays was maintained at less than 1% (vol./vol.). The equilibrium inhibition constants (Ki^ss) for each compound were measured under steady-state conditions monitoring enzyme activity as a function of inhibitor concentration. The values were calculated on the assumption of pure competitive behaviour (Cornish-Bowden, A. Fundamentals of enzyme kinetics Portland Press; 1995, 93-128.).
Human recombinant cathepsin V (0.25 nM final, Merck Biosciences) was routinely assayed in 100 mM sodium acetate; pH 5.5 containing 10 mM L-cysteine, 0.001% (vol./vol.) zwittergent 3-12 (Merck Biosciences) and 5 μM Z-Leu-Arg-AMC (KM=0.5 μM) (Amura).
(§2) The apparent inhibition constant (Ki) for each compound was determined on the basis that inhibition was reversible and occurred by a pure-competitive mechanism. The Ki values were calculated, from the dependence of enzyme activity as a function of inhibitor concentration, by direct regression analysis (Prism v 3.02) using Equation 2 (Cornish-Bowden, A., 1995.).
(§3) In situations where the apparent dissociation constant (Ki^app) approached the enzyme concentrations, the Ki^app values were calculated using a quadratic solution in the form described by Equation 3 (Morrison, J. F. Trends Biochem. Sci., 7, 102-105, 1982; Morrison, J. F. Biochim. Biophys. Acta. 185, 269-286, 1969: Stone, S. R. and Hofsteenge, J. Biochemistry, 25, 4622-4628, 1986).
(§4) Curves were fitted by non-linear regression analysis (Prism) using a fixed value for the enzyme concentration. Equation 4 was used to account for the substrate kinetics, where ‘Ki’ is the inhibition constant, ‘[So]’ is the initial substrate concentration and ‘KM^app’ is the apparent macroscopic binding (Michaelis) constant for the substrate (Morrison, 1982).

[2] = biological target: Human liver cathepsin B (Homo sapiens (Human), UniProt P07858); assay: In vitro cathepsin Ki inhibition measurements, cathepsin B; conditions: read-out: In vitro Ki (nM) vs Cath B
Protocol: as §1
Human liver cathepsin B (0.25 nM final; Merck Biosciences), was routinely assayed in 10 mM bis-tris propane; pH 6.5 containing 1 mM EDTA, 5 mM 2-mercaptoethanol, 1 mM CaCl2 and 60 μM Z-Phe-Arg-AMC ([S]=KM) (Bachem, Weil am Rhein, Germany).
as §2, §3
as §4, with “In Equation 3 ‘vi’ is the observed residual activity, ‘F’ is the difference between the maximum activity (i.e. in the absence of inhibitor) and minimum enzyme activity, ‘Eo’ is the total enzyme concentration, ‘Ki^app’ is the apparent dissociation constant and ‘Io’ is the inhibitor concentration. Curves” for “Curves”

[3] = biological target: Human liver cathepsin L (Homo sapiens (Human), UniProt P07711); assay: In vitro cathepsin Ki inhibition measurements, cathepsin L; conditions: read-out: In vitro Ki (nM) vs Cath L
Sequence of Human liver cathepsin L (P07711 114-333): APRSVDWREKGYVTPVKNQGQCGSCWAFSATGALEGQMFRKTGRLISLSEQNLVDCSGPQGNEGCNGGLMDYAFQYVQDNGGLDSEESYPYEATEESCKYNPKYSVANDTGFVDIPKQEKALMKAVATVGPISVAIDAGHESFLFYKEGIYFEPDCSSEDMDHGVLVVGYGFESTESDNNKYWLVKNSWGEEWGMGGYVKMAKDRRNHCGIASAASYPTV
Protocol: as §1
Human liver cathepsin L (0.25 nM final, Athens Research and Technology, GA, USA) was routinely assayed in 10 mM bis-tris propane; pH 6.5 containing 1 mM EDTA, 5 mM 2-mercaptoethanol, 1 mM CaCl2 and 4 μM Ac-Phe-Arg-AMC ([S]=KM) (Bachem).
as §2, §3, §4

[4] = biological target: Human recombinant cathepsin K (Homo sapiens (Human), UniProt P43235); assay: In vitro cathepsin Ki inhibition measurements, cathepsin K; conditions: read-out: In vitro Ki (nM) vs Cath K
Sequence of Human recombinant cathepsin K (P43235 115-329): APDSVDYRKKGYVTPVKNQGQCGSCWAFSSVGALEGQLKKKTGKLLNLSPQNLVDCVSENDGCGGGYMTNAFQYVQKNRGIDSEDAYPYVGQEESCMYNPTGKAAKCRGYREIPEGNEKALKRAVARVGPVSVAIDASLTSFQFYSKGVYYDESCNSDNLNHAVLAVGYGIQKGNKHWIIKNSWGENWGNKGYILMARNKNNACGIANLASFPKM
Protocol: as §1
Human recombinant cathepsin K (0.25 nM final; B. Turk, Josef, Stefan Institute, Ljubljana, Slovenia), was routinely assayed in 100 mM sodium acetate; pH 5.5 containing 1 mM EDTA, 10 mM L-cysteine and 1.8 μM Z-Leu-Arg-AMC ([S]=KM).
as §2, §3, §4

[5] = biological target: Human recombinant cathepsin S (Homo sapiens (Human), UniProt P25774); assay: In vitro cathepsin Ki inhibition measurements, cathepsin S; conditions: for Ki: read-out: In vitro Ki (nM) vs Cath S; for selectivity against other mammalian cathepsins (in words): cathepsin S over other mammalian cathepsins
Sequence of Human recombinant cathepsin S (P25774 115-331): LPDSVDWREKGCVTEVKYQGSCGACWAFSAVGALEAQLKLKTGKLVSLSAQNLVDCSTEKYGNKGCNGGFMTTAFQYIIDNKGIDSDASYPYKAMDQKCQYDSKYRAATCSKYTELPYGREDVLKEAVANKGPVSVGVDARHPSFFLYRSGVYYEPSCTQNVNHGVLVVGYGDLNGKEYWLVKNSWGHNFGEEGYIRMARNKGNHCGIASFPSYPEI
Protocol: as §1, §2, §3, §4

Sequence of Human recombinant cathepsin V (O60911 114-334): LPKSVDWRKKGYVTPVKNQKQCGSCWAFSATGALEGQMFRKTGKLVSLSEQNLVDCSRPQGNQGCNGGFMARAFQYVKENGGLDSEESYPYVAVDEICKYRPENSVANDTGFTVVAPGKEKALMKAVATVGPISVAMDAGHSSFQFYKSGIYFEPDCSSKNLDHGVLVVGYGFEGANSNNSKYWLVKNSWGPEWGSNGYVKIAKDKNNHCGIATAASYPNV

`C[C@H]1CC[C@H]([C@H](NC(=O)c2cccc(-n3ccnc3)c2)C(=O)N2C[C@H](Cl)[C@H]3OCC(=O)[C@H]32)CC1` showed a Ki [1] of 3200 nM, a Ki [2] of 4000 nM and a Ki [3] of 4500 nM. For the same compound, the Ki [4] was > 3000 nM and the Ki [5] was 0.4 nM.

In the case of `O=C(N[C@H](C(=O)N1CC[C@H]2OCC(=O)[C@H]21)C1CCCCC1)c1ccccc1` [Compound 1], the Ki [1] is reported as 1900 nM, the Ki [2] is reported as > 10000 nM and the Ki [3] is reported as 1250 nM.

`O=C(N[C@H](C(=O)N1C[C@H](F)[C@H]2OCC(=O)[C@H]21)C1CCCCC1)c1ccccc1` [Compound 2] was tested, and the Ki [1] was 700 nM, the Ki [2] was > 7000 nM and the Ki [3] was 580 nM. For the same compound, the “selectivity verses cathepsin K (in words)” value ([5]; cathepsin S over cathepsin K) was “little selectivity” and the “improvement in in vitro potency against human cathepsin S” value (“improvement in in vitro potency” below) ([5]; relative to Compound 1) was 3.8 fold.

With `O=C(N[C@H](C(=O)N1C[C@H](Cl)[C@H]2OCC(=O)[C@H]21)C1CCCCC1)c1ccccc1` [Compound 3] the Ki [1] was 100 nM, the Ki [2] was 780 nM and the Ki [3] was 100 nM. For the same compound, the “selectivity verses cathepsin K” value ([5]; cathepsin S over cathepsin K) was 4 fold and the “improvement in in vitro potency” value ([5]; relative to Compound 1) was 27 fold.

With `CC1CCC([C@H](NC(=O)c2ccccc2)C(=O)N2CC[C@H]3OCC(=O)[C@H]32)CC1` (some centres unmarked) [Compound 4] the Ki [1] was > 10000 nM, the Ki [2] was > 10000 nM and the Ki [3] was > 10000 nM. For the same compound, the Ki [4] was > 4800 nM, the “selectivity verses cathepsin K” value ([5]; cathepsin S over cathepsin K) was > 65 fold and the Ki [5] was 72 nM. For the same compound, the “improvement in in vitro potency” value ([5]; relative to Compound 1) was 3 fold.

In the case of `C[C@H]1CC[C@H]([C@H](NC(=O)c2ccccc2)C(=O)N2C[C@H](F)[C@H]3OCC(=O)[C@H]32)CC1` [Compound 5], the Ki [1] is reported as > 10000 nM, the Ki [2] is reported as > 10000 nM and the Ki [3] is reported as > 10000 nM. For the same compound, the Ki [4] was > 10000 nM, the “selectivity against other mammalian cathepsins (in words)” value [5] was “high selectivity” and the Ki [5] was 28 nM. For the same compound, the “less potent verses cathepsin S” value ([5]; relative to EXAMPLE 1) was 5.6 fold.

In the case of `C[C@H]1CC[C@H]([C@H](NC(=O)c2ccccc2)C(=O)N2C[C@@H](Cl)[C@H]3OCC(=O)[C@H]32)CC1` [Compound 6], the Ki [1] is reported as > 10000 nM, the Ki [2] is reported as > 10000 nM and the Ki [3] is reported as > 10000 nM. For the same compound, the Ki [4] was > 10000 nM, the “selectivity against other mammalian cathepsins (in words)” value [5] was “high selectivity” and the Ki [5] was 75 nM. For the same compound, the “less potent verses cathepsin S” value ([5]; relative to EXAMPLE 1) was 15 fold.

For `O=C(N[C@H](C(=O)N1CC[C@H]2OCC(=O)[C@H]21)C1CCCCC1)c1cccc(-n2cnnn2)c1` [Compound 7], the Ki [1] was 5000 nM, the Ki [2] was > 10000 nM and the Ki [3] was > 6500 nM.

Work on `O=C(N[C@H](C(=O)N1C[C@H](F)[C@H]2OCC(=O)[C@H]21)C1CCCCC1)c1cccc(-n2cnnn2)c1` [Compound 8] yielded a Ki [1] of 2000 nM, a Ki [2] of 6000 nM and a Ki [3] of 4000 nM. The “selectivity verses cathepsin K” value ([5]; cathepsin S over cathepsin K) was 6.8 fold and the “improvement in in vitro potency” value ([5]; relative to Compound 7) was 3.4 fold.

For `O=C(N[C@H](C(=O)N1C[C@H](Cl)[C@H]2OCC(=O)[C@H]21)C1CCCCC1)c1cccc(-n2cnnn2)c1` [Compound 9], the Ki [1] was 240 nM, the Ki [2] was 650 nM and the Ki [3] was > 1200 nM. The “selectivity verses cathepsin K” value ([5]; cathepsin S over cathepsin K) was 7.5 fold and the “improvement in in vitro potency” value ([5]; relative to Compound 7) was 47 fold.

For `C[C@H]1CC[C@H]([C@H](NC(=O)c2cccc(-n3cnnn3)c2)C(=O)N2CC[C@H]3OCC(=O)[C@H]32)CC1` [Compound 10], the Ki [1] was > 10000 nM, the Ki [2] was > 10000 nM and the Ki [3] was > 10000 nM. The Ki [4] was > 10000 nM, the “selectivity verses cathepsin K” value ([5]; cathepsin S over cathepsin K) was > 125 fold and the Ki [5] was 79 nM. For the same compound, the “improvement in in vitro potency” value ([5]; relative to Compound 7) was 2.2 fold.

For `C[C@H]1CC[C@H]([C@H](NC(=O)c2cccc(-n3cnnn3)c2)C(=O)N2C[C@H](F)[C@H]3OCC(=O)[C@H]32)CC1` [Compound 11], the Ki [1] was > 10000 nM, the Ki [2] was > 10000 nM and the Ki [3] was > 10000 nM. For the same compound, the Ki [4] was > 10000 nM, the “selectivity against other mammalian cathepsins (in words)” value [5] was “high selectivity” and the Ki [5] was 24 nM. The “less potent verses cathepsin S” value ([5]; relative to EXAMPLE 2) was 11 fold.

With `C[C@H]1CC[C@H]([C@H](NC(=O)c2cccc(-n3cnnn3)c2)C(=O)N2C[C@@H](Cl)[C@H]3OCC(=O)[C@H]32)CC1` [Compound 12] the Ki [1] was > 10000 nM, the Ki [2] was > 10000 nM and the Ki [3] was > 10000 nM. For the same compound, the Ki [4] was > 10000 nM, the “selectivity against other mammalian cathepsins (in words)” value [5] was “high selectivity” and the Ki [5] was 55 nM. The “less potent verses cathepsin S” value ([5]; relative to EXAMPLE 2) was 25 fold.

In the case of `O=C(N[C@H](C(=O)N1C[C@H](Cl)[C@H]2OCC(=O)[C@H]21)C1CCCCC1)c1cccc(-n2ccnc2)c1` [Compound 13], the Ki [1] is reported as 170 nM, the Ki [2] is reported as 440 nM and the Ki [3] is reported as 270 nM.

`O=C(N[C@H](C(=O)N1C[C@@H](Cl)[C@H]2OCC(=O)[C@H]21)C1CCCCC1)c1cccc(-n2ccnc2)c1` [Compound 14] gave a Ki [1] of 1800 nM, a Ki [2] of 5000 nM and a Ki [3] of 1900 nM.

For `C[C@H]1CC[C@H]([C@H](NC(=O)c2cccc(-n3ccnc3)c2)C(=O)N2C[C@H](F)[C@H]3OCC(=O)[C@H]32)CC1` [Compound 15], the Ki [1] was > 10000 nM, the Ki [2] was > 10000 nM and the Ki [3] was > 10000 nM. For the same compound, the Ki [4] was > 10000 nM and the Ki [5] was 15 nM.

In the case of `C[C@H]1CC[C@H]([C@H](NC(=O)c2ccccc2)C(=O)N2C[C@H](Cl)[C@H]3OCC(=O)[C@H]32)CC1` [EXAMPLE 1, N—((S)-2-((3aS,6S,6aS)-6-chloro-3-oxodihydro-2H-furo[3,2-b]pyrrol-4(5H,6H,6aH)-yl)-1-((1r,4S)-4-methylcyclohexyl)-2-oxoethyl)benzamide], the Ki [1] is reported as > 10000 nM, the Ki [2] is reported as > 10000 nM and the Ki [3] is reported as 1400 nM. For the same compound, the Ki [4] was > 10000 nM, the “selectivity against other mammalian cathepsins (in words)” value [5] was “high selectivity” and the Ki [5] was 5 nM. The “improvement in in vitro potency” value ([5]; relative to Compound 1) was 45 fold and the “improvement in in vitro potency” value ([5]; relative to prior art compound (38)) was 111 fold.

In the case of `C[C@H]1CC[C@H]([C@H](NC(=O)c2cccc(-n3cnnn3)c2)C(=O)N2C[C@H](Cl)[C@H]3OCC(=O)[C@H]32)CC1` [EXAMPLE 2, N—((S)-2-((3aS,6S,6aS)-6-chloro-3-oxodihydro-2H-furo[3,2-b]pyrrol-4(5H,6H,6aH)-yl)-1-((1r,4S)-4-methylcyclohexyl)-2-oxoethyl)-3-(1H-tetrazol-1-yl)benzamide], the Ki [1] is reported as > 10000 nM, the Ki [2] is reported as > 10000 nM and the Ki [3] is reported as > 10000 nM. For the same compound, the Ki [4] was > 8000 nM, the “selectivity against other mammalian cathepsins (in words)” value [5] was “high selectivity” and the Ki [5] was 2.2 nM. The “improvement in in vitro potency” value ([5]; relative to Compound 7) was 77 fold.

For `CC1(C)CCC([C@H](NC(=O)c2cccc(-n3cnnn3)c2)C(=O)N2C[C@H](Cl)[C@H]3OCC(=O)[C@H]32)CC1` [EXAMPLE 3, N—((S)-2-((3aS,6S,6aS)-6-chloro-3-oxodihydro-2H-furo[3,2-b]pyrrol-4(5H,6H,6aH)-yl)-1-(4,4-dimethylcyclohexyl)-2-oxoethyl)-3-(1H-tetrazol-1-yl)benzamide], the Ki [1] was 1700 nM, the Ki [2] was > 10000 nM and the Ki [3] was > 10000 nM. For the same compound, the Ki [4] was > 10000 nM, the “selectivity against other mammalian cathepsins (in words)” value [5] was “high selectivity” and the Ki [5] was 12 nM. The “improvement in in vitro potency” value ([5]; relative to Compound 7) was 15 fold.

For `O=C(N[C@@H](CC1CCCCC1)C(=O)N1CC[C@H]2OCC(=O)[C@H]21)c1ccccc1` [compound (38), reference compound], the Ki [1] was 5700 nM, the Ki [2] was > 10000 nM and the Ki [3] was 1700 nM. The Ki [4] was > 4000 nM.

— patent US8552202B2, “Furo[3, 2-B] pyrrol-3-ones as cathespin S inhibitors” (Amura Therapeutics Limited, priority 2008, dated 2013)
